The assay concerns GAVE7 expression in THP-1 cells. Kind of assay: Immune cell regulation: GAVE7 expression in PMA-differentiated THP-1 cells by Northern blot or TaqMan assay. In kind it is cell-based. The conditions noted are these: PMA differentiated THP-1 cells stimulated with LPS (10 μg/ml) for 4 hours and 24 hours, actin control. As for the experimental part: THP-1 cells were obtainied from the American Type Culture Collection (Manassas, Va.) and maintained in RPMI culture medium (RPMI 1640, 100 IU/ml penicillin-streptomycin, 10% heat-inactivated fetal bovine serum) at 37° C. in a humidfied 95% air/5% CO2 tissue culture incubator. THP-1 cells were treated with 10 nM phorbol-12-myristate-13-acetate (PMA) and incubated overnight to differentiate the monocyte into an adhereent macrophage-type cell. The differentiated cells adhere, stop proliferating and express high levels of CD14. LPS activates macrophages and elicits an inflammatory response. The cells were washed once with the culture medium and grown for an additional 48 hours in the absence of PMA. The PMA differentiated cells were stimulted with or without LPS (10 μg/ml) for 4 hours and 24 hours.
The cells then were assayed for GAVE7 expression by Northern blot or TaqMan assay. Cell exposed to actin served as a control.
(In qPCR the cycle at which signal appears reflects the starting amount.)

Regarding Lipopolysaccharide [LPS], the GAVE7 expression result is given as “down-regulated”.
